{
  "source": "paper PMC3156899",
  "about": "(Clinical cancer research : an official journal of the …, 2011)",
  "test_system": "pp65#23-specific CD4+ T cells",
  "assay": "Cytokine ELISPOT / ELISA of pp65#23-specific CD4+ T cells",
  "type": "cell-based, human",
  "data": [
    {"substance": "221DQYVKVYLESFCEDVPSGKL240 [pp65#23]", "values": [
      {"measurement": "IL-10 and IL-17 secretion", "setting": "IL-10 ELISPOT, IL-17 ELISA (limit of detection 15.0 pg/ml)", "result": "no IL-10 or IL-17 was detected"},
      {"measurement": "IFN-γ and IL-4 secretion (ELISPOT)", "setting": "antigen-specific, T2/DP4 pulsed with peptide, Figure 3B", "result": "predominantly secreted IFN-γ and much less IL-4"},
      {"measurement": "IL-2 production (ELISPOT)", "setting": "upon stimulation, Figure 3B", "result": "produced IL-2"}
    ]}
  ]
}
